Data taken from US20180362487A1, “STEREOISOMER OF BROMADIOLONE, COMPOSITION AND RODENTICIDAL BAIT COMPRISING SAME, AND PROCESS FOR CONTROLLING TARGET RODENT PESTS” (priority 2015, published 2018).

Assay type: in vivo, "Sprague-Dawley" SD rats
Conditions: per os tube feeding, about 13 mg bromadiolone per kg (56% D1,2 / 44% D3,4), liver on D1, D3, D7, male and female rats, FIG. 2
Procedure: Separation of the configurational stereoisomers of bromadiolone is performed by high-pressure liquid chromatography (HPLC) on a LUX® Cellulose-1 chiral column (Phenomenex, Le Pecq, France) containing a chiral stationary phase constituted of particles of cellulose tris(3,5-dimethylphenyl carbamate), said particles having a mean size of 3 μm and having a mean pore size of 1000 Å. A mixture formed from acetonitrile (A) and water comprising 0.1% by volume of formic acid (B), with an A/B volume ratio of 80/20 and with a flow rate of 0.25 mL/minute in the chromatography column, is used as mobile phase. The concentration of the composition to be analysed is 1 μg of bromadiolone per millilitre of acetonitrile and the volume injected onto the column is 1 μL. Detection is performed by tandem mass spectrometry (MS/MS) in negative electrospray ionization (ESI) mode. The temperature of the nebulizer gas is 350° C. and its flow rate is 8 L/minute. The pressure of the nebulizer gas is brought to 2700 hPa. In particular, the MRM (“Multiple Reaction Monitoring”) transitions m/z 525.1→250.1 and m/z 525.1→181, corresponding to bromadiolone, are detected.
About 0.525 g (±0.025 g) of rat liver is weighed out accurately and placed in a 50 mL polypropylene tube. 10 mL of acetone are added and the suspension is homogenized using an Ultra-Turrax® homogenizer/disperser for a time of about 30 seconds. […]

| Structure (SMILES) | persistence in the liver of the rats (hepatic concentration of the diastereoisomers) |
| --- | --- |
| O=c1oc2ccccc2c(O)c1C(CC(O)c1ccc(-c2ccc(Br)cc2)cc1)c1ccccc1 (single isomer, unassigned) [diastereoisomer D1,2] | longer persistence in the liver of the rats than the persistence of said diastereoisomer D3,4 |
| O=c1oc2ccccc2c(O)c1C(CC(O)c1ccc(-c2ccc(Br)cc2)cc1)c1ccccc1 (single isomer, unassigned) [diastereoisomer D3,4] | less persistent in the liver of target rodents |
